Values of other authors as cited in patent US7122568B1, “Use of low-dose PDT to inhibit restenosis” (QLT, Inc., priority 1999, dated 2006).
Where two headings read alike, the source gives them in different places.

Key:
porcine model = settings: 0.3 mg/kg injected four hours prior to endothelial denudation; external irradiation 20 J/cm2 of 652 nm
[1] = tested on: normal rabbit carotid arteries; settings: systemic administration 7 days after denudation, external irradiation two days later; five weeks after PDT
[2] = tested on: rabbit arteries injured by endothelial denudation; settings: systemic administration after injury, 120 or 240 J/cm2 irradiation 24 hours later
[3] = tested on: normal rat carotid arteries; settings: systemic administration, external irradiation; PDT on days 2 and 7 after denudation, read on day 14

## Oc1cccc(-c2c3nc(c(-c4cccc(O)c4)c4ccc([nH]4)c(-c4cccc(O)c4)c4nc(c(-c5cccc(O)c5)c5ccc2[nH]5)CC4)C=C3)c1 [m-THPC, metatetrahydroxyphenyl-chlorin]
Porcine model
  effect on intimal area: significant increase of intimal area

## Photofrin™
[1]
  effect on induced IH response (ratio of IH area to normalized area enclosed by the IEL): effective in reducing the induced IH response
[2]
  effect on IH: prevention of IH

## benzoporphyrin derivative monoacid ring A [BPD-MA]
Rat carotid artery; 0.5 μg/ml local delivery, 50 and 100 J/cm2 of 690 nm (Stages I and II)
  effect on IH: little effect on reducing IH
Rat carotid artery; 0.5 μg/ml local delivery, 100 J/cm2 of 690 nm (Stage II)
  effect on IH: induction of significant IH
Rat carotid artery; 25 μg/ml local delivery, 50 J/cm2 of 690 nm (Stage III)
  effect on IH: inhibit IH
Rat carotid artery; 25 μg/ml local delivery, 100 J/cm2 of 690 nm (Stage IV)
  photothrombosis: induce photothrombosis

## chloraluminum-sulfonated phthalocyanine [CASPc]
[3]
  effect on induced IH response: effective in inhibiting the induced IH response
